Test results from US7375080B1, “Immobilized lactoferrin (Im-LF) antimicrobial agents and uses thereof” (priority 1999, dated 2008).
Where two headings read alike, the source gives them in different places.

Key:
[1] = test system: E. coli O157:H7 strain ATCC43895; test: Microbial adhesion assay: detachment of 3H-thymidine labeled bacteria from beef tissue by wash; format: cell-based
[2] = test system: E. coli serotype O157:H7 (strain ATCC43895); format: cell-based

SMILES	% BACTERIAL CELLS DETACHED IN 1-MINUTE [1] [%]	% BACTERIAL CELLS DETACHED IN 1-MINUTE ([1]; Lean tissue (beef)) [%]	% BACTERIAL CELLS DETACHED IN 1-MINUTE ([1]; Surface tissue (neck) (beef)) [%]	GROWTH (%) [2] [%]
CC(O)C(=O)O (stereo not drawn) [Lactic acid (2%), Lactic acid]	68	75	62	–
[Cl-].[Na+] [0.1 M sodium chloride, sodium chloride]	–	–	–	100
O=C(O)CC(O)(CC(=O)O)C(=O)O [0.001 M citric acid, citric acid]	–	–	–	103
O=C([O-])O.[Na+] [0.01 M sodium bicarbonate, sodium bicarbonate]	–	–	–	112
